According to patent US5371102A, “Compositions and methods of inhibiting thyroid activity” (priority 1993, dated 1994):
“Also recorded” adds a separate entry of the source.

Columns and labels:
TPX [1] = target: T1, TPX (Sus scrofa, UniProt P09933); test: TPX-catalyzed iodide oxidation (triiodide formation), spectrophotometric; format: biochemical, hog
T1 sequence (P09933 15-926): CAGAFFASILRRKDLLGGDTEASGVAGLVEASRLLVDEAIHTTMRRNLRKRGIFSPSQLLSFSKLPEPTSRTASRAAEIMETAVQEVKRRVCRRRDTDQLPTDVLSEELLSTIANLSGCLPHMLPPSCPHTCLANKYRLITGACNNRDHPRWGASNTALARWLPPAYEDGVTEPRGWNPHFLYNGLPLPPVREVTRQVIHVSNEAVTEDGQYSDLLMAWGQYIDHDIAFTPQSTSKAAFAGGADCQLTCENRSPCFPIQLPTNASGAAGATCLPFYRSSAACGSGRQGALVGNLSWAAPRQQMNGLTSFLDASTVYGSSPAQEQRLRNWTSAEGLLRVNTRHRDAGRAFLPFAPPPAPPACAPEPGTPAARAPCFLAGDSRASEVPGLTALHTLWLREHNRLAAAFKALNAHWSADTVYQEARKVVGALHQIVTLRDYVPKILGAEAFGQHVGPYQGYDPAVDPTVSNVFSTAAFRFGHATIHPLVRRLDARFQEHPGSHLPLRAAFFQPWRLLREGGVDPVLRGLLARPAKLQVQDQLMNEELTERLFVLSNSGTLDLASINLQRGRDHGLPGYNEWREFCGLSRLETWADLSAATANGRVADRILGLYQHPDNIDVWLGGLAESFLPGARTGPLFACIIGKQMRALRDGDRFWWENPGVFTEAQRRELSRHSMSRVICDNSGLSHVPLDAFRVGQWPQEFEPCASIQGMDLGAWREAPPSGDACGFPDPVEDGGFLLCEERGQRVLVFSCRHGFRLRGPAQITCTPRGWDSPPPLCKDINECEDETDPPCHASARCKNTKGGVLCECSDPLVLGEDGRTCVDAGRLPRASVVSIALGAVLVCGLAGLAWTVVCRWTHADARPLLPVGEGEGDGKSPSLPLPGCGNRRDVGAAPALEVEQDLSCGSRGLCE
From the text: (§1) Materials used in the examples below were obtained from the following sources. Bovine LPX, bovine liver catalase, glucose oxidase, 30% hydrogen peroxide, glucose, guaiacol, ABTS and deuterium oxide were purchased from Sigma Chemical Company. Selenium dioxide, MBI ^13 CH3 I and PBA were purchased from Aldrich Chemical Company and PBA was purified as previously described by Fieset et al., Reagents for Organic Synthesis, Vol. I, pp.135-139, John Wiley and Sons, N.Y. (1967). LPX purity was checked by PAGE, as described by Doerge, D.R., et al. in, Biochem. Pharmacol., Vol.36, pp.972-974 (1986). TPX was purified from hog thyroids obtained from a local slaughterhouse by published procedures. Doerge & Takazowa, Chemical Research in Toxicology, Vol. 3, pp. 98-101 (1990). TPX purity was determined by LC and its concentration determined spectophotometrically. Hydroperoxide concentrations were determined by iodometric titration, as described by Kolthoff, et al., in "Quantitative Chemical Analysis", Macmillan, London, pp.842-860 (1969). MMBI, and BI were synthesized by published procedures as described by Doerge, D.R., Biochem, Vol. 27, pp. 3697-3700 (1988) and were recrystallized from aqueous ethanol. MeBI was purified by distillation and DMeBI^+ was synthesized and purified by recrystallization from ethyl acetate/methanol. 1-^13 C-MMBI was synthesized from ^13 CH3 I according to the procedure disclosed by Doerge, D.R., in, J. Lab. Comp. and Radiopharm., Vol.25, pp.985-990 (1988). PPHP and PPA were prepared, purified and analyzed as previously described by Doerge, Biochem, Vol.27, p.11 (1988). The methyl ester of 1-methyl-benzimidazole-2-sulfinic acid was prepared by addition of hydrogen peroxide (5 equivalents of a 10 M solution) to MMBI (0.1 M) in methanol. The products, MeBI and the ester, were obtained following preparative TLC on silica (Uniplate, Analtech Co., Newark, DL) using 5% methanol/chloroform as eluant. […]
1,3-diacetyl MBI (AczMBI) was synthesized according to the method published by Doerge et al., Syn. […] Varying quantities of Ac2 MBI were incubated with TPX, H2 O2, and I^-. […]

LPX = target: T2, LPX (Bos taurus, UniProt P80025); test: LPX-catalyzed iodide ion oxidation (triiodide formation); format: biochemical, bovine
T2 construct: purchased Sigma Chemical Company
From the text: as §1, with “methanol.” for “methanol. The products, MeBI and the ester, were obtained following preparative TLC on silica (Uniplate, Analtech Co., Newark, DL) using 5% methanol/chloroform as eluant.”
Inhibition of LPX activity by thiones was determined from the kinetics of iodide ion, guaiacol or ABTS oxidation assays conducted at 25° C. Kinetic parameters of suicide inactivation were determined as previously described. […]

[2] = reaction of DMMBI with preformed triiodide; conditions: triiodide formed by H2O2, LPX and iodide ion
From the text: When triiodide ion was formed by addition of hydrogen peroxide to LPX and iodide ion, addition of DMMBI caused rapid quenching of triiodide (ca. 1 sec) and DMeBI^+ was the sole product. Triiodide produced by addition of […] to aqueous iodide ion reacted identically with DMMBI.

TPX [3] = target: T1, TPX; test: TPX inactivation; format: biochemical, hog
From the text: Materials used in the examples below were obtained from the following sources. Bovine LPX, bovine liver catalase, glucose oxidase, 30% hydrogen peroxide, glucose, guaiacol, ABTS and deuterium oxide were purchased from Sigma Chemical Company. Selenium dioxide, MBI ^13 CH3 I and PBA were purchased from Aldrich Chemical Company and PBA was purified as previously described by Fieset et al., Reagents for Organic Synthesis, Vol. I, pp.135-139, John Wiley and Sons, N.Y. (1967). LPX purity was checked by PAGE, as described by Doerge, D.R., et al. in, Biochem. Pharmacol., Vol.36, pp.972-974 (1986). TPX was purified from hog thyroids obtained from a local slaughterhouse by published procedures. Doerge & Takazowa, Chemical Research in Toxicology, Vol. 3, pp. 98-101 (1990). TPX purity was determined by LC and its concentration determined spectophotometrically. Hydroperoxide concentrations were determined by iodometric titration, as described by Kolthoff, et al., in "Quantitative Chemical Analysis", Macmillan, London, pp.842-860 (1969). MMBI, and BI were synthesized by published procedures as described by Doerge, D.R., Biochem, Vol. 27, pp. 3697-3700 (1988) and were recrystallized from aqueous ethanol. MeBI was purified by distillation and DMeBI^+ was synthesized and purified by recrystallization from ethyl acetate/methanol. 1-^13 C-MMBI was synthesized from ^13 CH3 I according to the procedure disclosed by Doerge, D.R., in, J. Lab. Comp. and Radiopharm., Vol.25, pp.985-990 (1988). PPHP and PPA were prepared, purified and analyzed as previously described by Doerge, Biochem, Vol.27, p.11 (1988). The methyl ester of 1-methyl-benzimidazole-2-sulfinic acid was prepared by addition of hydrogen peroxide (5 equivalents of a 10 M solution) to MMBI (0.1 M) in methanol. The products, MeBI and the ester, were obtained following preparative TLC on silica (Uniplate, Analtech Co., Newark, DL) using 5% methanol/chloroform as eluant.
DMMBI was synthesized according to a published method. Duffin et al., J. Chem. Soc., Part II, pp.364-365 (1956). Samples including TPX, H2 O2, and I^- were incubated with and without DMMBI. Triiodide formation was observed spectrophotometrically with respect to time.

## Cn1c(=S)n(C)c2ccccc21 [DMMBI, 1,3-dimethylbenzimidazole-2-thione]
TPX [1]; TPX, H2O2 and I-
  effect on triiodide formation: causes a lag in triiodide formation, followed by an increase in the rate of triiodide formation approximating the control rate
TPX [1]; TPX/hydrogen peroxide
  inhibition of iodide ion oxidation: inhibits only iodide ion oxidation
LPX; LPX, H2O2, iodide ion
  inhibition of iodide ion oxidation (triiodide formation): marked inhibition of iodide ion oxidation; also recorded: inhibits only iodide ion oxidation
LPX; dependence on DMMBI concentration
  lag period: proportional to the concentration of DMMBI
[2]
  time of triiodide quenching: ca. 1 sec
TPX [3]; 100 μM, 1 minute incubation
  TPX inactivation: does not inactivate TPX
TPX [3]; presence of hydrogen peroxide
  TPX inactivation: does not inactivate LPX or TPX
